Assay results published in patent US10227344B2, “CK2 inhibitors, compositions and methods thereof” (Polaris Pharmaceuticals, Inc., priority 2016, dated 2019).

Tests used:
[1] = test system: Caki-2; experiment: Cancer cell panel, cell viability (resazurin): Renal, Caki-2; type: cell-based; conditions: Homo sapiens; Caki-2 (Renal), 72 hours, single agent; read-out: Example 3 IC50
Description: (§1) Cells were plated in 96-well plates and treated for 72 hours with a serially diluted CK2 inhibitor or anti-cancer drug or their combination. The suspension cell lines were treated right after plating, while the adherent cells were allowed to attach overnight prior to the start of the treatment.
(§2) Cell viability was determined by adding resazurin to cell cultures and measuring fluorescence with a plate reader. Relative cell viability was calculated by dividing the cell viability signal from a test sample by that of a non-treated control. […] Bliss Independence and Highest Single Agent models were used to determine if there is synergy, additivity or antagonism between the CK2 inhibitor and an anti-cancer drug.

[2] = test system: HCT116; experiment: Cancer cell panel, cell viability (resazurin): Colon, HCT116; type: cell-based; conditions: Homo sapiens, HCT-116, 72 hours, single agent, read-out: Example 3 IC50
[3] = test system: SK-MEL-24; experiment: Cancer cell panel, cell viability (resazurin): Melanoma, SK-MEL-24; type: cell-based; conditions: Homo sapiens; SK-MEL-24 (Melanoma), 72 hours, single agent; read-out: Example 3 IC50
Description: as §1, §2

[4] = test system: A549; experiment: Cancer cell panel, cell viability (resazurin): NSCLC, A549; type: cell-based; conditions: Homo sapiens, 72 hours, single agent, read-out: Example 3 IC50
[5] = test system: SKOV-3; experiment: Cancer cell panel, cell viability (resazurin): Ovarian, SKOV-3; type: cell-based; conditions: Homo sapiens, SK-OV-3; SKOV-3 (Ovarian), 72 hours, single agent; read-out: Example 3 IC50
[6] = test system: BT-474; experiment: Cancer cell panel, cell viability (resazurin): Breast, BT-474; type: cell-based; conditions: Homo sapiens; BT-474 (Breast), 72 hours, single agent; read-out: Example 3 IC50
Description: as §1, §2

[7] = test system: MeWO; experiment: Cancer cell panel, cell viability (resazurin): Melanoma, MeWO; type: cell-based; conditions: Homo sapiens, 72 hours, single agent, read-out: Example 3 IC50
[8] = test system: K562; experiment: Cancer cell panel, cell viability (resazurin): Leukemia, K562; type: cell-based; conditions: Homo sapiens, 72 hours, single agent, read-out: Example 3 IC50
Description: as §1, §2

[9] = test system: H1975; experiment: Cancer cell panel, cell viability (resazurin): NSCLC, H1975; type: cell-based; conditions: Homo sapiens, NCI-H1975, 72 hours, single agent, read-out: Example 3 IC50
[10] = test system: H23; experiment: Cancer cell panel, cell viability (resazurin): NSCLC, H23; type: cell-based; conditions: Homo sapiens, NCI-H23, 72 hours, single agent, read-out: Example 3 IC50
[11] = test system: U266; experiment: Cancer cell panel, cell viability (resazurin): multiple myeloma, U266; type: cell-based; conditions: Homo sapiens, U-266, 72 hours, single agent, read-out: Example 3 IC50
[12] = test system: H2122; experiment: Cancer cell panel, cell viability (resazurin): NSCLC, H2122; type: cell-based; conditions: Homo sapiens, NCI-H2122, 72 hours, single agent, read-out: Example 3 IC50
Description: as §1, §2

[13] = test system: MDA-MB-453; experiment: Cancer cell panel, cell viability (resazurin): Breast, MDA-MB-453; type: cell-based; conditions: Homo sapiens; MDA-MB-453 (Breast), 72 hours, single agent; read-out: Example 3 IC50
Description: as §1, §2

[14] = test system: BT-20; experiment: Cancer cell panel, cell viability (resazurin): Breast, BT-20; type: cell-based; conditions: Homo sapiens; BT-20 (Breast), 72 hours, single agent; read-out: Example 3 IC50
Description: as §1, §2

[15] = test system: MCF7; experiment: Cancer cell panel, cell viability (resazurin): Breast, MCF7; type: cell-based; conditions: Homo sapiens, 72 hours, single agent, read-out: Example 3 IC50
[16] = test system: MOLT4; experiment: Cancer cell panel, cell viability (resazurin): Leukemia, MOLT4; type: cell-based; conditions: Homo sapiens, MOLT-4, 72 hours, single agent, read-out: Example 3 IC50
Description: as §1, §2

[17] = test system: Colo205; experiment: Cancer cell panel, cell viability (resazurin): Colon, Colo205; type: cell-based; conditions: Homo sapiens, COLO 205, 72 hours, single agent, read-out: Example 3 IC50
Description: as §1, §2

[18] = test system: OVCAR-3; experiment: Cancer cell panel, cell viability (resazurin): Ovarian, OVCAR-3; type: cell-based; conditions: Homo sapiens; OVCAR-3 (Ovarian), 72 hours, single agent; read-out: Example 3 IC50
[19] = test system: Caki-1; experiment: Cancer cell panel, cell viability (resazurin): Renal, Caki-1; type: cell-based; conditions: Homo sapiens; Caki-1 (Renal), 72 hours, single agent; read-out: Example 3 IC50
[20] = test system: BxPC3; experiment: Cancer cell panel, cell viability (resazurin): Pancreatic, BxPC3; type: cell-based; conditions: Homo sapiens, BXPC-3, 72 hours, single agent, read-out: Example 3 IC50
[21] = test system: SkBr-3; experiment: Cancer cell panel, cell viability (resazurin): Breast, SkBr-3; type: cell-based; conditions: Homo sapiens, SK-BR-3; SkBr-3 (Breast), 72 hours, single agent; read-out: Example 3 IC50
[22] = biological target: purified CK2α enzyme (Homo sapiens, UniProt P68400); experiment: CK2 Protein Kinase Inhibition Assay (coupled PK/LDH assay); type: biochemical; conditions: CK2 enzyme 25 nM, 100 μM ATP, 37° C., Morrison equation
Chain of purified CK2α enzyme (P68400 whole entry): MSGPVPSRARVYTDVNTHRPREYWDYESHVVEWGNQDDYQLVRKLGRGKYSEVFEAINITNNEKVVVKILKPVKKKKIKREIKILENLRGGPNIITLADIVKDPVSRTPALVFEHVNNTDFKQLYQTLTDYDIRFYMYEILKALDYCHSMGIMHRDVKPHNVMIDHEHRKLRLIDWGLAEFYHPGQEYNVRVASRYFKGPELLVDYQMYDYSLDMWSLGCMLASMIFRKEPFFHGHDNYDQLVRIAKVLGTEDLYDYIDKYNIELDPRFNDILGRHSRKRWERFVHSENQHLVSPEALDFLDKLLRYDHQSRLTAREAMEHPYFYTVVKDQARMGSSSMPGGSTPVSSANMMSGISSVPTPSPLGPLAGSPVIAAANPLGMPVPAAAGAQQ
Outline: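 Purified CK2α at 25 nM final, 1.5 mM peptide substrate, 100 μM ATP, pH 8.25 Tris buffer; compounds pre-incubated 10 min at 37° C. ADP coupled via PK/LDH to NADH loss at 340 nm over 30 min, 37° C. Ki from rate versus concentration by Morrison equation, triplicate points.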

[23] = test system: NAMALWA; experiment: Cancer cell panel, cell viability (resazurin): Burkitt's Lymphoma, NAMALWA; type: cell-based; conditions: 72 hours, single agent, read-out: Example 3 IC50
Description: as §1, §2

[24] = test system: Mia-Paca-2; experiment: Cancer cell panel, cell viability (resazurin): Pancreatic, Mia-Paca-2; type: cell-based; conditions: Homo sapiens; Mia-Paca-2 (Pancreatic), 72 hours, single agent; read-out: Example 3 IC50
Description: as §1, §2

[25] = test system: LnCap; experiment: Cancer cell panel, cell viability (resazurin): Prostate, LnCap; type: cell-based; conditions: Homo sapiens, 72 hours, single agent, read-out: Example 3 IC50
[26] = test system: A375; experiment: Cancer cell panel, cell viability (resazurin): Melanoma, A375; type: cell-based; conditions: Homo sapiens, A-375, 72 hours, single agent, read-out: Example 3 IC50
[27] = test system: H1299; experiment: Cancer cell panel, cell viability (resazurin): NSCLC, H1299; type: cell-based; conditions: Homo sapiens, NCI-H1299, 72 hours, single agent, read-out: Example 3 IC50
[28] = test system: SK-MEL-3; experiment: Cancer cell panel, cell viability (resazurin): Melanoma, SK-MEL-3; type: cell-based; conditions: Homo sapiens, SK-MEL3; SK-MEL-3 (Melanoma), 72 hours, single agent; read-out: Example 3 IC50
Description: as §1, §2

[29] = test system: Raji; experiment: Cancer cell panel, cell viability (resazurin): Burkitt's Lymphoma, Raji; type: cell-based; conditions: Homo sapiens, 72 hours, single agent, read-out: Example 3 IC50
Description: as §1, §2

[30] = test system: T47D; experiment: Cancer cell panel, cell viability (resazurin): Breast, T47D; type: cell-based; conditions: Homo sapiens, 72 hours, single agent, read-out: Example 3 IC50
Description: as §1, §2

Work on `C[S@+]([O-])Cc1cc(Nc2cc(NC3CC3)n3ncc(C#N)c3n2)ccc1Cl` [Example 3, (S)(+)-5-((4-Chloro-3-((methylsulfinyl)methyl)phenyl)amino)-7-(cyclopropylamino)pyrazolo[1,5-a]pyrimidine-3-carbonitrile] yielded an IC50 [1] of 669 nM, an IC50 [2] of 356 nM and an IC50 [3] of 1410 nM. For the same molecule, the IC50 [4] was 1670 nM, the IC50 [5] was 1380 nM and the IC50 [6] was 338 nM. The IC50 [7] was 263 nM, the IC50 [8] was 463 nM and the IC50 [9] was 387 nM. For the same molecule, the IC50 [10] was 575 nM, the IC50 [11] was over 10000 nM and the IC50 [12] was 227 nM. The IC50 [13] was 148 nM, the IC50 [14] was 98 nM and the IC50 [15] was 1820 nM. The IC50 [16] was 420 nM, the IC50 [17] was 1120 nM and the IC50 [18] was 42 nM. It also gave an IC50 [19] of 171 nM, an IC50 [20] of 3600 nM and an IC50 [21] of 228 nM. The Ki [22] was under 2.5 nM, the IC50 [23] was 206 nM and the IC50 [24] was 253 nM. It also gave an IC50 [25] of 420 nM, an IC50 [26] of 218 nM and an IC50 [27] of 246 nM. The IC50 [28] was 429 nM, the IC50 [29] was 249 nM and the IC50 [30] was 861 nM.
